Values joined by “and” are separate entries in the source; they are usually repeats but may differ in a detail not shown here. Equal entries are not always repeated. “Also recorded” adds a separate entry of the source. Where two headings read alike, the source gives them in different places.
Tests used:
hIDO1 [1] = target: T1, hIDO1 (Homo sapiens, UniProt P14902); details: previously determined, cited from earlier work; for Inh. [%]: 200 µM
T1 construct: The full ORF of hIDO1 was cloned into the mammalian expression vector pcDNA6/myc-His; myc-His (vector-encoded); host or cells: HEK 293 T

TDO = tested on: TDO; parameters: method as in PMID 22616902; details: undetectable activity; cited from earlier work
HEK 293 T cells [2] = details: previously determined, 200 µM, cited from earlier work
[3] = target: T2, purified recombinant IDO1 (Homo sapiens, UniProt P14902); assay: Enzymatic IDO1 inhibition assay (ascorbate/methylene blue reduction system, HPLC detection of kynurenine); format: biochemical; details: for IC50: enzymatic; for LE [kcal/mol/HA]: ligand efficiency, LE = -RT log(IC50)/number of heavy atoms, from enzymatic IC50
T2 construct: Full-length human IDO1 gene was cloned into the pET-28a vector; inferred from pET-28a vector and HisTrap purification; made in house; host or cells: E. coli Rosetta (DE3)
Experimental: Enzymatic IC50 values were measured with the ascorbate/methylene blue reduction system[85] in presence of a non-ionic detergent to reduce compound aggregation as described before[28]. Kynurenine and L-Trp concentrations were determined by HPLC through UV detection.
Full-length human IDO1 gene was cloned into the pET-28a vector and expressed in E. coli Rosetta (DE3) cells. […] The culture was harvested and frozen at −80 °C until further use. The frozen cells were lysed by sonication in 20 mM Tris pH 7, 400 mM NaCl, 1 mM MgCl2, 20 mM imidazole, 1 mM DTT, 0.5 mg/mL Lysozyme and Protease inhibitor. After centrifugation, the supernatant was loaded into a HisTrap HP column pre-equilibrated with buffer containing 20 mM Tris pH 7, 500 mM NaCl and 20 mM imidazole, and eluted with the same buffer containing 500 mM imidazole. Fractions containing IDO1 were pooled, concentrated, and injected on a size exclusion chromatography column (HiLoad Superdex S75 16/60) to increase purity. hIDO1 fractions were concentrated to 20 mg/mL in 20 mM Tris pH 7 and 150 mM NaCl.
The enzymatic inhibition assays were performed as described by Takikawa et al.[130] with some modifications. Briefly, the reaction mixture (100 µL) contained potassium phosphate buffer (100 mM, pH 6.5) ascorbic acid (20 mM), catalase (400 units/mL), methylene blue (10 µM), purified recombinant IDO1 (2.5 ng/µL), L-Trp (100 µM), Triton X-100 (0.01%) and DMSO (5 µL). The inhibitors were serially diluted 3-fold for at least 8 different concentrations. After incubation at room temperature for 20 min, the reaction was stopped in its linear phase by addition of trichloroacetic acid solution (40 mL, 30% w/v), and the samples were incubated at 50 °C for 30 min. After centrifugation, 80 µl of supernatant from each well were used for HPLC analysis. The mobile phase for HPLC analysis was composed of 50% (v/v) of methanol and 50% of sodium citrate buffer (40 mM, pH 2.4) containing 400 µM sodium dodecyl sulphate. […] All assays were carried out in duplicates. The activity (Act) of each compound was calculated as Act = RT log(IC50) in analogy to the relation between the binding free energy and the Ki value. The ligand efficiency (LE) was calculated as LE = −Act/NHA, where NHA is the number of non-hydrogen atoms (heavy atoms) in the compound.

IDO1 = details: cited from earlier work
murine IDO2 = tested on: murine IDO2; parameters: method as in PMID 27469130; details: murine IDO2, cellular; cited from earlier work
[4] = Compound solubility (qualitative remarks); format: physicochemical
HEK 293 T cells [5] = assay: Cell viability / cellular toxicity (DAPI staining, cytometry); format: cell-based, human; details: 7 h
Experimental: (§1) We tested the cellular hIDO1 inhibitory activity and toxicity of 30 active compounds at a single concentration (Figure 6 and Table 8). As some of the aniline derivatives reacted with Ehrlich’s reagent (p-dimethylaminobenzaldehyde, p-DMAB) used to quantify kynurenine, the kynurenine content of these samples was determined by HPLC. To be able to detect also weak inhibition, compounds were tested at the high concentration of 200 µM (Figure 6A and B, filled bars), except for less soluble compounds (52, 148, 149 and 153), which were tested at a concentration of 50 µM (Figure 6A and B, empty bars).
Following DMSO (negative control) or inhibitor treatments, apoptotic cells were detected by 4′,6-diamidino-2-phenylindole (DAPI) staining. Briefly, after 7 h of incubation, cells were washed with PBS, resuspended in PBS with 1 µg/mL DAPI and immediately analysed using a BD LSR II cytometer. A 405 nm laser with 450/50 nm bandpass filter was used to collect data.

hIDO1 [6] = target: T1, hIDO1; assay: Cellular hIDO1 inhibition (kynurenine production) in transiently transfected HEK 293 T cells; format: cell-based
Experimental: as §1
The cDNA encoding hIDO1 (NCBI, NM 0021464.3) was purchased from Origene as pCMV6-Entry vector (RC206592). The full ORF of hIDO1 was cloned into the mammalian expression vector pcDNA6/myc-His from Invitrogen. Human embryonic kidney 293 T (HEK 293 T) cells were transiently transfected with the plasmid construct encoding hIDO1. A 75 cm^2 flask containing HEK 293 T cells at a confluency of 70% was transfected with jetPEI DNA transfection reagent (Polyplus-transfection), according to manufacturer’s protocol. A total of 20 µg of pcDNA-IDO1 along with 5 µg of pcDNA-GFP plasmid were used for the transfection; GFP was used to evaluate transfection efficiency prior to the cellular assays. 16–18 h post-transfection the 293 T cells were detached with trypsin, centrifuged, and re-suspended in 25 mL of DMEM medium without phenol red, supplemented with penicillin and streptomycin, 10% foetal bovine serum and 1 mM pyruvate (Gibco). Subsequently, 100 µL of cells were distributed to each well of two 96-well round-bottom plates that had been pre-loaded with 100 µL DMEM and the small organic test molecule in DMSO (for a final DMSO concentration of 2%). DMEM medium contains 78 µM L-Trp and was supplemented with 500 µM of L-Trp. Cells transfected with hIDO1 were incubated for 7 h at 37 °C in a CO2 incubator. The reaction was stopped in its linear phase by adding trichloroacetic acid (TCA) to the medium at a final concentration of 4%. Plates were centrifuged for 15 min at 4,000 rpm. 100 µL of supernatant was added to 100 µL of 2% (w/v) DMAB in glacial acetic acid. After 10 min the absorbance was measured at a wavelength of 480 nm to detect kynurenine formation. Alternatively, kynurenine content was determined by HPLC as done for the enzymatic assay.

hIDO1 [7] = target: T1, hIDO1; assay: as above; format: cell-based; details: HEK 293 T cells transfected with hIDO1; read-out: Cell. IC50 [ μ M] (SD)
[8] = ref 1 of Supporting Information (Röhrig et al. 2021)
[9] = L-Trp 100 µM, 0.01% Triton X-100, 5% DMSO, 20 min at room temperature, pH 6.5, duplicates, read-out: IC50 [ μ M] (SD)
[10] = values of Panda and co-workers, not reproduced here, read-out: published IC50 values

T2 sequence (P14902 whole entry): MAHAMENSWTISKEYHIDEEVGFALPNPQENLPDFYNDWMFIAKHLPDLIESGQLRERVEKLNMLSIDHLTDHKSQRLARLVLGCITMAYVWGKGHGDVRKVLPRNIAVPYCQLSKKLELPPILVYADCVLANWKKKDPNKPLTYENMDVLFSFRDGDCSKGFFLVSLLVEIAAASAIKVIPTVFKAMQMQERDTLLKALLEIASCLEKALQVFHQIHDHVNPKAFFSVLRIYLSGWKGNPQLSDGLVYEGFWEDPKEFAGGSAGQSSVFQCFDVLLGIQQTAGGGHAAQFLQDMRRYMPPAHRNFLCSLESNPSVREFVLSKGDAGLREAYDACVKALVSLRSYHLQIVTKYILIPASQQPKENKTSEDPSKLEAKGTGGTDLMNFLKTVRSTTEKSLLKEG
T1 sequence (P14902 whole entry): as above

Row | SMILES | IC50 [3, 9] | LE [kcal/mol/HA] [3] [kcal/mol/HA] | solubility (in words) [4] | melting point [°C] | also measured
1 | Oc1ccc(Cl)cc1-c1cnn[nH]1 [Compound 9] | – | – | – | – | Inh. [%] (hIDO1 [1]; [8]): 100%; activities on TDO (TDO): > 100 µM; Tox. [%] (HEK 293 T cells [2]; [8]): 4%
2 | Clc1cccc(-c2cnn[nH]2)c1/C=C/C1CCCCC1 [Compound 42] | 260 µM | 0.24 | – | – | Inh. [%] (hIDO1 [1]; ref 3 of Supporting Information (Röhrig et al. 2016)): 56%; IC50 (murine IDO2): 110 µM; Tox. [%] (HEK 293 T cells [2]; ref 3 of Supporting Information (= main text ref 62)): 5%
3 | Clc1cccc(-c2nn[nH]c2-c2cccc(Cl)c2)c1 [Compound 64, 4,5-Bis(3-chlorophenyl)-1,2,3-triazole, reference compound] | > 50 µM | – | – | – | IC50 (IDO1; [10]): 2.51 µM
4 | CCOC(=O)c1[nH]nnc1-c1ccc(Cl)cc1 [Compound 65, reference compound] | > 1000 µM | – | – | – | IC50 (IDO1; [10]): 0.39 µM
5 | NC(=O)c1[nH]nnc1-c1ccc(Cl)cc1 [Compound 66, 4–(4-Chlorophenyl)-1H-1,2,3-triazole-5-carboxamide, reference compound] | 800 µM | 0.28 | – | – | IC50 (IDO1; [10]): 0.62 µM
6 | Oc1ccccc1-c1nnc[nH]1 [Compound 138] | – | 0.51 | – | – | Inh. [%] (hIDO1 [1]; [8]): 52%; Tox. [%] (HEK 293 T cells [2]; [8]): 6%
7 | Nc1ccccc1-c1nnc[nH]1 [Compound 139, 3–(2-aminophenyl)-1,2,4-triazole] | – | 0.65 | – | – | Inh. [%] (hIDO1 [1]; [8]): 100%; IC50 (hIDO1 [1]; ref 1 of Supporting Information (Röhrig et al. 2021), read-out: IC50 [µM] (cellular)): 4.6 µM; Tox. [%] (HEK 293 T cells [2]; [8]): 0%
8 | CCCC(=O)Nc1ccc(Cl)cc1-c1nc[nH]n1 [Compound 148, N-(4-Chloro-2-(1H-1,2,4-triazol-3-yl)phenyl)butyramide] | 24 µM and 25 µM | 0.35 | less soluble | 156 to 158 | Tox. [%] (HEK 293 T cells [5]; compound 50 µM): 17 (2) %; inhibition at 50 µM (hIDO1 [6]): 93%
9 | O=C(Nc1ccc(Cl)cc1-c1nc[nH]n1)C1CCC1 [Compound 150, N-(4-Chloro-2-(1H-1,2,4-triazol-3-yl)phenyl)cyclobutanecarboxamide] | > 100 µM | – | strongly reduced solubilities | 201 to 203 | –
10 | O=C(Nc1ccc(Cl)cc1-c1nc[nH]n1)C1CCCC1 [Compound 151, N-(4-Chloro-2-(1H-1,2,4-triazol-3-yl)phenyl)cyclopentanecarboxamide] | > 100 µM | – | strongly reduced solubilities | 197 to 199 | –
11 | O=C(Nc1ccc(Cl)cc1-c1nc[nH]n1)c1ccccc1 [Compound 153, N-(4-Chloro-2-(1H-1,2,4-triazol-3-yl)phenyl)benzamide] | 9.4 µM and 9.3 µM | – | low solubility; also recorded: less soluble | – | Tox. [%] (HEK 293 T cells [5]; compound 50 µM): 5.9 (8) %; inhibition at 50 µM (hIDO1 [6]): 87%

The remaining compounds from weak to strong by IC50 [3, 9], led by results:

Row | IC50 [3, 9] | LE [kcal/mol/HA] [3] [kcal/mol/HA] | solubility (in words) [4] | melting point [°C] | SMILES | also measured
12 | 56 µM | 0.44 | – | – | Clc1ccc(Nc2cnn[nH]2)cc1 [Compound 10, reference compound] | IC50 (IDO1; read-out: IC50 value in the original publication): 11.3 µM
13 | 33 µM | 0.44 | less soluble | 190 to 192 | Clc1cc(Cl)c(-c2c[nH]nn2)cc1Cl [Compound 52, 4–(2,4,5-Trichlorophenyl)-1,2,3-triazole] | Tox. [%] (HEK 293 T cells [5]; compound 50 µM): 7.9 (1) %; inhibition at 50 µM (hIDO1 [6]): 44%
14 | 0.81 µM | 0.64 | – | – | Nc1c(F)cccc1-c1nc[nH]n1 [Compound 140, 2-Fluoro-6-(1H-1,2,4-triazol-3-yl)aniline] | Tox. [%] (HEK 293 T cells [5]; compound 200 µM): 17 (3) %; inhibition at 200 µM (hIDO1 [6]): 100%; IC50 (hIDO1 [7]): 1.2 µM
15 | 0.49 µM | 0.48 | less soluble | 183 to 186 | O=C(Nc1ccc(Cl)cc1-c1nc[nH]n1)C1CC1 [Compound 149, N-(4-Chloro-2-(1H-1,2,4-triazol-3-yl)phenyl)cyclopropanecarboxamide] | Tox. [%] (HEK 293 T cells [5]; compound 50 µM): 19 (2) %; inhibition at 50 µM (hIDO1 [6]): 100%
16 | 0.15 µM | 0.72 | – | – | Nc1ccc(F)cc1-c1nc[nH]n1 [Compound 143, 4-Fluoro-2-(1H-1,2,4-triazol-3-yl)aniline] | Tox. [%] (HEK 293 T cells [5]; compound 200 µM): 18 (0.5) %; inhibition at 200 µM (hIDO1 [6]): 86%; IC50 (hIDO1 [7]): 0.25 µM
17 | 0.034 µM | 0.73 | – | 243 to 246 | Nc1cc(F)c(Br)cc1-c1nc[nH]n1 [Compound 144, 4-Bromo-5-fluoro-2-(1H-1,2,4-triazol-3-yl)aniline] | Tox. [%] (HEK 293 T cells [5]; compound 200 µM): 17 (2) %; inhibition at 200 µM (hIDO1 [6]): 100%; IC50 ([3]; read-out: enzymatic IC50): 0.034 µM; IC50 (hIDO1 [7]): 0.034 µM
